Broadly, the AC50 is the concentration at which the activity in the assay is half-maximal.

Activity calls are given as the source filed them.

The text below walks through data of ChEMBL document CHEMBL1201862, “PubChem BioAssay data set” (2004).

Among the targets are Cytochrome P450 2D6 (Homo sapiens, UniProt P10635); Cytochrome P450 2C9 (Homo sapiens, UniProt P11712); Cytochrome P450 3A4 (Homo sapiens, UniProt P08684).
In another assay the target is Cytochrome P450 2C19 (Homo sapiens, UniProt P33261). Briefly: Cytochrome panel assay with activity outcomes. Panel member name: p450-cyp2c19 Compounds with AC50 equal or less than 10 uM are considered active. Particulars: read-out: AC50. The assay is classed as functional.
Chain of Cytochrome P450 2C19 (P33261 whole entry): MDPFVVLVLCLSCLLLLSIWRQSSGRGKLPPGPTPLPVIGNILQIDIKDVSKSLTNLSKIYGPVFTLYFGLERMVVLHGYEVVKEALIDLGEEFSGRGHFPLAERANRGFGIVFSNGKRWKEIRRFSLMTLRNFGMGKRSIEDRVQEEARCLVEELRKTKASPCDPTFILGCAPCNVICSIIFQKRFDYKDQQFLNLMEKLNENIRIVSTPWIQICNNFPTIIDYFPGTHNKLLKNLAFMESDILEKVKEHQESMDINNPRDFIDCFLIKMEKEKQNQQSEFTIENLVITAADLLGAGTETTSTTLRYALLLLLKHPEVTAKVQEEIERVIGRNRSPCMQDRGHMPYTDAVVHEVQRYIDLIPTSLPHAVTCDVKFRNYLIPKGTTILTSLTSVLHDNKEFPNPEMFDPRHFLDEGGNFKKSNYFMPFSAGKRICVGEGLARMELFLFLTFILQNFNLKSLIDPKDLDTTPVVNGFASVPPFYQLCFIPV
Another assay concerns the target T1, Cytochrome P450 1A2 (Homo sapiens, UniProt P05177).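 Further: PubChem cytochrome P450 panel assay, CYP1A2 panel member.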
T1 sequence (P05177 whole entry): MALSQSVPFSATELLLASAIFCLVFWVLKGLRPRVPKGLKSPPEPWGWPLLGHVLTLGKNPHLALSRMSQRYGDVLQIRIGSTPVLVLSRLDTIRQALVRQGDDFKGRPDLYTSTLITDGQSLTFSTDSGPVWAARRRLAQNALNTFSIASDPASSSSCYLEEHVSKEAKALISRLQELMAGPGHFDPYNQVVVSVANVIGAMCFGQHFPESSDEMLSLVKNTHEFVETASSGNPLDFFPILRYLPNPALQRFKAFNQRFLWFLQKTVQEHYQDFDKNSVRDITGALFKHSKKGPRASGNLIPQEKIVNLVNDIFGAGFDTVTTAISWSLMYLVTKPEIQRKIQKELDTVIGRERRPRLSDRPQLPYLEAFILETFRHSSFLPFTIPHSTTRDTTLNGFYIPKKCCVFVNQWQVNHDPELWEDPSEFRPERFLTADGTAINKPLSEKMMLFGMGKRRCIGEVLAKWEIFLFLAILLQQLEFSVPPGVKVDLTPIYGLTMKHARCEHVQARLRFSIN

For assay [1], the system named is Streptococcus sp. 'group A'. Briefly: Streptococcus pyogenes SK(-)GAS viability under kanamycin – luminescence, BacTiterGlo, confirmation, counter-screen for streptokinase expression inhibitor project, dose response (AID 1900). In kind it is functional, organism-based. Background: Counterscreens check selectivity or assay interference.
The next assay concerns the target T2, Streptokinase A (Streptococcus pyogenes serotype M1, UniProt P10520).
T2 sequence (P10520 whole entry): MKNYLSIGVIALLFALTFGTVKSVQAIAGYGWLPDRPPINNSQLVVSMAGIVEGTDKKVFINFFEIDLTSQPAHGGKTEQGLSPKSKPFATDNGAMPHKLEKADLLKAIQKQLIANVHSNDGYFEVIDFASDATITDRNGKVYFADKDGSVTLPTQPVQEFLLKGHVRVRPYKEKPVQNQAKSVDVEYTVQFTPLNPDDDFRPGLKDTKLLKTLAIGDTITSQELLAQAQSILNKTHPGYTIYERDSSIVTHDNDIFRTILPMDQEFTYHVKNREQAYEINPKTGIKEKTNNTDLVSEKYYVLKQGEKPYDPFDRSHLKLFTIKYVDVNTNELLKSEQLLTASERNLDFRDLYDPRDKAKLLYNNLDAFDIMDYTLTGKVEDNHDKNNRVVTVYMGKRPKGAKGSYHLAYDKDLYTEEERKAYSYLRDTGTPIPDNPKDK
Briefly: viability-normalized secreted streptokinase activity reduction – plasminogen activation absorbance, OD405, dose response (AID 1914).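 Further: secreted streptokinase activity via plasminogen activation per viability signal from cell pellet.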 In kind it is functional, Streptococcus pyogenes M1 GAS.

Assay [2] can be described thus: Trypanosoma cruzi growth suppression in host cells – NIH3T3 host cells, beta-gal luminescence, confirmation (AID 2044).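 Further: intracellular parasites grown in NIH/3T3 mouse fibroblasts as host cells; luminescent beta-galactosidase reporter signal from transgenic T. cruzi replicating inside host cells; inhibitors lower the luminescence signal.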 In kind it is functional, cell-based.
Assay [3] is described as follows: NIH3T3 cell viability loss – ATP luminescence, mouse fibroblasts, counter-screen, dose response (AID 2010).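 Further: cells exposed to compound for about 90 hours before reading.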 The assay is classed as functional, cell-based.
For another assay, the system named is Streptococcus. Briefly: GAS UMAA2166 growth inhibition – luminescence, BacTiterGlo, counter-screen for streptokinase expression inhibitor project, dose response (AID 1915).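 Further: potency for reduction of bacterial viability or growth.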 In kind it is functional, organism-based.
The target of assay [4] is T3, Corticotropin-releasing factor receptor 2/Corticotropin-releasing factor-binding protein (Homo sapiens, UniProt P24387+Q13324).
T3 sequence (Q13324 whole entry): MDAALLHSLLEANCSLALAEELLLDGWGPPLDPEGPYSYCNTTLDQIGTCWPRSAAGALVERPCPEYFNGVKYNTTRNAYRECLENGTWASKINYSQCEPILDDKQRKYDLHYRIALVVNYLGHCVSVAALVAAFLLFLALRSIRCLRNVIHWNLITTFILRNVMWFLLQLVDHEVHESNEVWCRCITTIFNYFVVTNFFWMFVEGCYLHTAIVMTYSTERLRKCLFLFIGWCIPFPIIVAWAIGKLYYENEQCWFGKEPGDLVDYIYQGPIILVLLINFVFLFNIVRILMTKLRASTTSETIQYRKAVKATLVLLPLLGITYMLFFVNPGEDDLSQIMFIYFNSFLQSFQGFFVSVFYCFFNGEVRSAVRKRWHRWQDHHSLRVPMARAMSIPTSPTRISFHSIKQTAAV
T3 sequence (P24387 whole entry): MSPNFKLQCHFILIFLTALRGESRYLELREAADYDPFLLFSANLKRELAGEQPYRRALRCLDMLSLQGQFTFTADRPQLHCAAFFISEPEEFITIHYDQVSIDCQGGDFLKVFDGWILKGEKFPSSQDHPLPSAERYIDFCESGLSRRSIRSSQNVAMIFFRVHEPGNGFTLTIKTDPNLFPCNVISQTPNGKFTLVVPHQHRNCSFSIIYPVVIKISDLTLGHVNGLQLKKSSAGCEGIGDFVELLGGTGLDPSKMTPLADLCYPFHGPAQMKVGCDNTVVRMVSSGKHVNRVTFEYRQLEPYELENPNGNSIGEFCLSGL
Briefly: activators of CRF receptor 2 with binding protein – uHTS hits, confirmation (AID 602473). The assay is classed as functional. Particulars: read-out: EC50_Mean.

For assay [5], the target named is T3, Corticotropin-releasing factor receptor 2/Corticotropin-releasing factor-binding protein. Briefly: Dose Response confirmation of uHTS hits for small molecule antagonists of the CRF-binding protein and CRF-R2 receptor complex. In kind it is functional. Particulars: read-out: IC50_Mean.

Chain of Cytochrome P450 2C9 (P11712 whole entry): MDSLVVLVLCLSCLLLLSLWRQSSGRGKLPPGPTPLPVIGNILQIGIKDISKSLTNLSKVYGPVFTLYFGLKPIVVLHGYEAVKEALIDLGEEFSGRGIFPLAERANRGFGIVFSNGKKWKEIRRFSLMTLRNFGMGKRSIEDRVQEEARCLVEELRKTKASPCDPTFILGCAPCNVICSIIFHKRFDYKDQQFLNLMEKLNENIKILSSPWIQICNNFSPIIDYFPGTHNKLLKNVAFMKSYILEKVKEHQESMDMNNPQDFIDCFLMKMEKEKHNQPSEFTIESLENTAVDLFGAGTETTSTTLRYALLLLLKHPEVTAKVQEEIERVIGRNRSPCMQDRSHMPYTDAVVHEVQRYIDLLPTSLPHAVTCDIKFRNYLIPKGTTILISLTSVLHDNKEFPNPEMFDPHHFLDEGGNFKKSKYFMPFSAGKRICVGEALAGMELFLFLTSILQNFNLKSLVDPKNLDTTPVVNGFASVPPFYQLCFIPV
Chain of Cytochrome P450 2D6 (P10635 whole entry): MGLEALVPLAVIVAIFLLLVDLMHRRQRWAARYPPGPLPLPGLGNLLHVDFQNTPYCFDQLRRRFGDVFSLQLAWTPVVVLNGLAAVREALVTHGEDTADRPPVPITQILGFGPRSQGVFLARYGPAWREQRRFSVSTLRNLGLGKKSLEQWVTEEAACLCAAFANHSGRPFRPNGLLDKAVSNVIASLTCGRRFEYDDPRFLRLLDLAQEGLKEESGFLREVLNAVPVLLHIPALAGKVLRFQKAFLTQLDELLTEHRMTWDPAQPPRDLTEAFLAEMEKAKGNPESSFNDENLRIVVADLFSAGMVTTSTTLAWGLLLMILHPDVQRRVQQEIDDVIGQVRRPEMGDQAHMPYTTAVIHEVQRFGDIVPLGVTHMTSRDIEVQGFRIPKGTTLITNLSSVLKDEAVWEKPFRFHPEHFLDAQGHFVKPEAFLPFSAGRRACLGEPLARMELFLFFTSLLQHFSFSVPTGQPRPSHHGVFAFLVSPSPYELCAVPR
Chain of Cytochrome P450 3A4 (P08684 whole entry): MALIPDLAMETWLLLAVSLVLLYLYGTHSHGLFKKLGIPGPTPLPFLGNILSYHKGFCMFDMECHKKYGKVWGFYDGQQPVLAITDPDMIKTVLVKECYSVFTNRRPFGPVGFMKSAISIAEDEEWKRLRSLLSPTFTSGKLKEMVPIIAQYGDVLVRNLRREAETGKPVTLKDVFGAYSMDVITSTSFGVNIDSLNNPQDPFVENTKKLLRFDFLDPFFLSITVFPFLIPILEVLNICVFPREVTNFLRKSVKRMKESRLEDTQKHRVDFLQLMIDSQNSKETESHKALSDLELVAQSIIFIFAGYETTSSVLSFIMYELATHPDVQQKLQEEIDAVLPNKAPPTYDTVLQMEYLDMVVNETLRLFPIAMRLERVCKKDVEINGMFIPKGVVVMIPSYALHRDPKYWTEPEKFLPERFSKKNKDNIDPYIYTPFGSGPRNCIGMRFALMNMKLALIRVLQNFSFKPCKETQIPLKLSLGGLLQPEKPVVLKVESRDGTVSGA

Regarding `Cc1noc(C)c1-c1nc(N2CCN(C)CC2)c2ccccc2n1`, on Cytochrome P450 2D6, the AC50 was 39.8 µM (inconclusive).

On to `COc1cccc(Cn2c(=O)c(-c3ccc(Cl)cc3)nc3cnc(OC)nc32)c1`, for which the results for the AC50 on Cytochrome P450 2C19 and at Cytochrome P450 2C9 were 1.26 µM (inconclusive) and 7.94 µM (inconclusive), respectively.

As for `C=CC[C@@H]1C=C[C@H](Oc2ccc(C)cc2)[C@H](COC(=O)NCc2cccc3ccccc23)O1`, the AC50 on Cytochrome P450 2D6 is 7.94 µM (inconclusive); on Cytochrome P450 2C9, 3.98 µM (inconclusive).

`Cc1ccccc1C(=O)c1cccn1CC(=O)NCc1ccco1`: the AC50 at Cytochrome P450 1A2 is 10 µM (inconclusive).

In the case of `C=CCn1c(SCC(=O)N2CC(=O)Nc3ccccc32)nc2scc(-c3ccccc3)c2c1=O`, on Cytochrome P450 1A2, the AC50 is 14.1 µM (inconclusive).

As for `Cc1c(C(=O)N2CCC(Cc3ccccc3)CC2)sc2ncnc(N3CCC(C)CC3)c12`, the EC50 was 11.6 µM (active) in assay [1]; 3.68 µM (active) on Streptokinase A; 1.68 µM (active) in [2]; > 60 µM (not active) in assay [3]; 60 µM (active) in the assay with Streptococcus.

With `O=C(CSc1nnc(Cn2nnc3ccccc32)o1)Nc1cccc(Cl)c1`, the figures for the AC50 at Cytochrome P450 2C19 and at Cytochrome P450 2C9 were 22.4 µM (inconclusive) and 15.8 µM (inconclusive), respectively.

For `O=C(Nc1ccccc1N1CCOCC1)c1ccc([N+](=O)[O-])cc1`, the figures for the AC50 at Cytochrome P450 2D6 and on Cytochrome P450 2C9 were 15.8 µM (inconclusive) and 10 µM (inconclusive), respectively.

As to `Nc1c2c(nc3ccccc13)CCN(Cc1ccccc1)C2`, the EC50 in assay [4] was > 53 µM (inactive).

Consider `COC(=O)[C@@]1(Cc2ccc(OC)cc2)[C@H]2c3cc(C(=O)N4CCCC4)n(Cc4c(CO)ncc(C)c4O)c3C[C@H]2CN1C(=O)c1ccccc1`, for which the AC50 at Cytochrome P450 2D6 was 20 µM (inconclusive); at Cytochrome P450 1A2 it was 25.1 µM (inconclusive).

In the case of `COc1ccc(CNC(=O)CN2CCN(S(=O)(=O)c3cc(Br)ccc3Br)CC2)cc1OC`, in assay [5], the IC50 was > 47.1 µM (inactive). Also, in [4], the EC50 was > 53 µM (inactive).

As for `Cc1cc(OCC(=O)C(C)(C)C)c2c(C)c(C)c(=O)oc2c1`, the IC50 in assay [5] was > 47.1 µM (inactive). The EC50 in assay [4] was > 53 µM (inactive).

As for `NC(=S)c1ccc[n+]([C@@H]2O[C@@H](COP(=O)([O-])OP(=O)(O)OC[C@@H]3O[C@@H](n4cnc5c(N)ncnc54)[C@@H](OP(=O)(O)O)[C@H]3O)[C@@H](O)[C@H]2O)c1`, the AC50 on Cytochrome P450 1A2 was 39.8 µM (inconclusive).

Regarding `CCOC(=O)c1c(NC(=O)CCCN2CCOCC2)sc2c1CC(C)(C)OC2`, the AC50 was 39.8 µM (inconclusive) at Cytochrome P450 2C19 and 0.282 µM (inconclusive) at Cytochrome P450 2C9.

On to `Cc1ccc(C)c(Cn2cnc3c(cnn3C(C)(C)C)c2=O)c1`, for which the figures for the AC50 on Cytochrome P450 1A2 and on Cytochrome P450 3A4 were 10 µM (inconclusive) and 0.794 µM (inconclusive), respectively.

As to `CC(C)CN1CC[C@@]2(CCCN(C(=O)Oc3ccccc3)C2)C1`, the AC50 was 15.8 µM (inconclusive) at Cytochrome P450 1A2 and 31.6 µM (inconclusive) at Cytochrome P450 2C9.

As for `O=C(Nc1ccccc1)N1CCCC2(CCN(C(=O)c3csnn3)CC2)C1`, the AC50 at Cytochrome P450 2C19 is 3.98 µM (inconclusive); on Cytochrome P450 2D6, 39.8 µM (inconclusive); at Cytochrome P450 1A2, 25.1 µM (inconclusive).

As to `O=C(NCC1CCCO1)C(c1cccnc1)N(C(=O)Cc1cccs1)c1ccccc1` (configuration not stated), the concentration at half-maximal activity (AC50) is 17.8 µM (inconclusive) at Cytochrome P450 2C19, 15.8 µM (inconclusive) on Cytochrome P450 2D6 and 15.8 µM (inconclusive) on Cytochrome P450 2C9.

In the case of `COC(=O)[C@@]1(Cc2ccc(OC)cc2)[C@H]2c3cc(C(=O)N4CCCC4)n(CCN4CNCC4=O)c3C[C@H]2CN1C(=O)c1ccccc1`, the half-maximal activity concentration (AC50) at Cytochrome P450 1A2 was 31.6 µM (inconclusive).

Take `Cc1ccc(Oc2ccccc2/C=C2\SC(=O)N(C)C2=O)cc1`: the AC50 on Cytochrome P450 2D6 is 8.91 µM (inconclusive).

Turning to `Oc1c(CN2CCOCC2)cc(-c2ccccc2)cc1CN1CCOCC1`, the AC50 is 11.2 µM (inconclusive) on Cytochrome P450 2C19 and 28.2 µM (inconclusive) at Cytochrome P450 2C9.

Consider `O=C(CC(=O)NN=C1CCCC1)NCCc1ccccc1`, for which, on Cytochrome P450 2C19, the AC50 is 25.1 µM (inconclusive).

As for `CCC(=O)Nc1nnc(C(C)(C)C)s1`, at Cytochrome P450 1A2, the AC50 is 17.8 µM (inconclusive).

As to `CCCCCC/C(C)=C1/SC(=S)NC1=O`, at Cytochrome P450 2D6, the AC50 is 28.2 µM (inconclusive).

`O=[N+]([O-])c1ccc(S(=O)(=O)NCC(c2cccnc2)N2CCc3ccccc32)cc1` (configuration not stated): the results for the EC50 in [2] and in assay [3] were 0.622 µM (active) and > 60 µM (not active), respectively.

In the case of `CCN1CC(CN(C)Cc2nc(-c3ccc(C(F)(F)F)cc3)oc2C)CC1=O` (configuration not stated), the EC50 in assay [2] was 0.288 µM (active); in assay [3], 32.6 µM (active).

Consider `COc1ccc(CCNC(=O)c2nnn(CC(=O)Nc3ccccc3C)c2N)cc1OC`, for which, at Cytochrome P450 2C19, the AC50 is 17.8 µM (inconclusive).

Regarding `Cc1cc2c(nc1C)CCCCN2C[C@H](O)CN1CCCc2nc(-c3ccc(Br)cc3)ccc21`, the figures for the AC50 on Cytochrome P450 2D6 and on Cytochrome P450 2C9 were 3.16 µM (inconclusive) and 3.98 µM (inconclusive), respectively.

For `COc1cc(/C=C2\CCC(C)C3=C(c4cc(OC)c(OC)c(OC)c4)C(C#N)=C(N)OC32)cc(OC)c1OC` (configuration not stated), in assay [4], the EC50 was > 53 µM (inactive).

Regarding `O=C(CSc1nc2ccccc2c(=O)n1NC(=O)Cc1ccccc1)NCc1ccccc1Cl`, the AC50 on Cytochrome P450 2D6 is 2.82 µM (inconclusive).

For `O=C(Oc1ccc(S(=O)(=O)F)cc1F)c1ccccc1Cl`, at Cytochrome P450 1A2, the AC50 is 5.01 µM (inconclusive).

Turning to `CCOc1ccccc1NC(=O)C1CCC(=O)N1S(=O)(=O)c1ccc(C)cc1` (configuration not stated), the IC50 in assay [5] was > 47.1 µM (inactive). Also, the EC50 in [4] is > 53 µM (inactive).

On to `[O-]c1c[n+](CC[n+]2cc([O-])on2)no1`, for which the AC50 on Cytochrome P450 1A2 is 2.51 µM (inconclusive).

For the molecule `Oc1nc2cc(Cl)ccc2c(O)c1-c1ccc(Oc2ccccc2)cc1`, the AC50 at Cytochrome P450 1A2 and at Cytochrome P450 3A4 was 10 µM (inconclusive) in each case.

As to `O=C(Cn1c(-c2ccccc2)c[n+]2ccsc12)c1ccccc1`, the EC50 is 2.29 µM (active) in assay [2] and > 30 µM (not active) in assay [3].

Regarding `O=C(/C=C/c1ccccc1)NNC(=O)c1cccnc1`, the AC50 on Cytochrome P450 2C19 was 31.6 µM (inconclusive); on Cytochrome P450 2C9, 7.08 µM (inconclusive).

In the case of `COC(=O)C1=C(C)NC(C)=C(C(=O)OC(C)C)[C@H]1c1cccc2nonc12` [(S)-ISRADIPINE], the AC50 at Cytochrome P450 1A2 is 12.6 µM (inconclusive).

In the case of `CCC(=C(CC)c1ccc(O)cc1)c1ccc(O)cc1` [DIETHYLSTILBESTROL], the AC50 on Cytochrome P450 2C19 was 15.8 µM (inconclusive); at Cytochrome P450 2D6, 15.8 µM (inconclusive); at Cytochrome P450 1A2 it was 15.8 µM (active); at Cytochrome P450 2C9, 12.6 µM (active).
